Laboratory results published in US20260285853A1, “COMPOUNDS AND METHODS FOR MODULATING SPLICING” (REMIX THERAPEUTICS INC., priority 2023, published 2026).

Key:
Assay type in all cases: cell-based
HTT mRNA [1] = experiment: Splicing RT-qPCR assay (THP), Table 2A; conditions: Table 2A (THP); for AC50: AJ mRNA increase, read-out: HTT AJ (increase in alternative junction mRNA, AC50); for IC50: CJ mRNA decrease, read-out: HTT CJ (decrease in canonical junction mRNA, IC50)
[2] = test system: SH-SY5Y (human neuroblastoma) cells; experiment: Cell viability, Cell Titer Glo 2.0 assay; conditions: read-out: Viability SHSY5Y.3 GI50
Procedure, shortened: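 Toxicity screen in SH-SY5Y cells. Compounds were serially diluted in DMSO and then in medium, giving 0.1% DMSO final. Viability was read with CellTiter-Glo 2.0 after 72 h at 37 °C, 5% CO2, against medium-only blank wells.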

MYB mRNA [3] = experiment: Splicing RT-qPCR assay (THP), Table 2A; conditions: Table 2A (THP); for AC50: AJ mRNA increase, read-out: MYB AJ (increase in alternative junction mRNA, AC50); for IC50: CJ mRNA decrease, read-out: MYB CJ (decrease in canonical junction mRNA, IC50)
SMN2 mRNA = experiment: Gene panel canonical junction qPCR assay, decrease in CJ mRNA, Table 3; conditions: decrease in canonical junction (CJ) mRNA, gene panel qPCR, Table 3
Procedure, shortened: (§1)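 A673 (DMEM, 10% FBS, 15,000 cells/well) or K562 (IMDM, 10% FBS) cells treated 24 h at 37 °C with 11-point 3-fold dilutions, top 10 uM, DMSO ≤0.25%. Canonical exon-exon junction mRNA measured by RT-qPCR, normalized to GAPDH, GUSB or PPIA and DMSO (ΔΔCt); IC50 from 4-parameter logistic fit.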

HTT mRNA [4] = experiment: as above; conditions: decrease in canonical junction (CJ) mRNA, gene panel qPCR, Table 3
Procedure, shortened: as §1

MYB mRNA [5] = experiment: as above; conditions: decrease in canonical junction (CJ) mRNA, gene panel qPCR, Table 3
Procedure, shortened: as §1

CCNC1CCN(c2ccc(C(=O)Nc3cc(F)c4nc(C)cn4c3)c3nnn(C)c23)CC1 [Compound 199, 7-[4-(ethylamino)-1-piperidyl]-N-(8-fluoro-2-methylimidazo[1,2-a]-pyridin-6-yl)-1-methylbenzotriazole-4-carboxamide]
0.1 to 1 µM: AC50 (MYB mRNA [3]) | IC50 (MYB mRNA [3]) | IC50 (MYB mRNA [5])
1 to 10 µM: GI50 [2]
> 10 µM: AC50 (HTT mRNA [1]) | IC50 (HTT mRNA [1]) | IC50 (HTT mRNA [4])
< 0.1 µM: IC50 (SMN2 mRNA)

CCNC1CCN(c2ccc(C(=O)Nc3cc(F)c4nc(C)oc4c3)c3nn(C)cc23)CC1 [Compound 200, 4-(4-(ethylamino)piperidin-1-yl)-N-(4-fluoro-2-methylbenzo[d]-oxazol-6-yl)-2-methyl-2H-indazole-7-carboxamide]
1 to 10 µM: AC50 (HTT mRNA [1])
< 0.1 µM: AC50 (MYB mRNA [3]) | IC50 (MYB mRNA [3]) | IC50 (SMN2 mRNA)
0.1 to 1 µM: IC50 (HTT mRNA [1]) | GI50 [2] | IC50 (HTT mRNA [4]) | IC50 (MYB mRNA [5])

CCNC1CCN(c2ccc(C(=O)Nc3cc(F)c4nc(CC)cn4c3)c3nn(C)cc23)CC1 [Compound 201, 4-[4-(ethylamino)-1-piperidyl]-N-(2-ethyl-8-fluoro-imidazo[1,2-a]pyridin-6-yl)-2-methyl-indazole-7-carboxamide]
1 to 10 µM: AC50 (HTT mRNA [1]) | IC50 (HTT mRNA [1]) | GI50 [2] | AC50 (MYB mRNA [3]) | IC50 (MYB mRNA [3]) | IC50 (HTT mRNA [4]) | IC50 (MYB mRNA [5])
0.1 to 1 µM: IC50 (SMN2 mRNA)

CCNC1CCN(c2ccc(C(=O)Nc3cc(F)c4nc(CF)cn4c3)c3nn(C)cc23)CC1 [Compound 202, 4-[4-(ethylamino)-1-piperidyl]-N-[8-fluoro-2-(fluoromethyl)imidazo[1,2-a]pyridin-6-yl]-2-methyl-indazole-7-carboxamide]
1 to 10 µM: IC50 (HTT mRNA [1]) | IC50 (HTT mRNA [4])
0.1 to 1 µM: AC50 (HTT mRNA [1]) | GI50 [2]
< 0.1 µM: AC50 (MYB mRNA [3]) | IC50 (MYB mRNA [3]) | IC50 (SMN2 mRNA) | IC50 (MYB mRNA [5])

Cc1cn2cc(NC(=O)c3ccc(N4CCC(NC5CC56CC6)CC4)c4cn(C)nc34)cc(F)c2n1 (stereo not drawn) [Compound 203, N-(8-fluoro-2-methyl-imidazo[1,2-a]-pyridin-6-yl)-2-methyl-4-[4-(spiro[2.2]pentan-2-ylamino)-1-piperidyl] indazole-7-carboxamide]
< 0.1 µM: AC50 (MYB mRNA [3]) | IC50 (MYB mRNA [3]) | IC50 (SMN2 mRNA) | IC50 (MYB mRNA [5])
0.1 to 1 µM: AC50 (HTT mRNA [1]) | IC50 (HTT mRNA [1]) | GI50 [2] | IC50 (HTT mRNA [4])

Cc1cn2cc(NC(=O)c3ccc(N4CCC(NC5CC5C)CC4)c4cn(C)nc34)cc(F)c2n1 (stereo not drawn) [Compound 204, N-(8-fluoro-2-methyl-imidazo[1,2-a]pyridin-6-yl)-2-methyl-4-[4-[(2-methyl-cyclopropyl)amino]-1-piperidyl] indazole-7-carboxamide]
< 0.1 µM: AC50 (MYB mRNA [3]) | IC50 (MYB mRNA [3]) | IC50 (SMN2 mRNA) | IC50 (MYB mRNA [5])
0.1 to 1 µM: AC50 (HTT mRNA [1]) | IC50 (HTT mRNA [1]) | GI50 [2] | IC50 (HTT mRNA [4])

Cc1cn2cc(NC(=O)c3ccc(N4CCC(NC5CC5(C)C)CC4)c4cn(C)nc34)cc(F)c2n1 (stereo not drawn) [Compound 205, 4-(4-((2,2-dimethylcyclopropyl)amino)piperidin-1-yl)-N-(8-fluoro-2-methylimidazo[1,2-a]pyridin-6-yl)-2-methyl-2H-indazole-7-carboxamide]
< 0.1 µM: AC50 (MYB mRNA [3]) | IC50 (MYB mRNA [3]) | IC50 (SMN2 mRNA) | IC50 (MYB mRNA [5])
1 to 10 µM: IC50 (HTT mRNA [4])
0.1 to 1 µM: AC50 (HTT mRNA [1]) | IC50 (HTT mRNA [1]) | GI50 [2]

CCNC1CCN(c2ccc(C(=O)Nc3cn4cc(C)nc4c(OC)n3)c3nn(C)cc23)CC1 [Compound 206, 4-[4-(ethylamino)-1-piperidyl]-N-(8-methoxy-2-methyl-imidazo[1,2-a]pyrazin-6-yl)-2-methyl-indazole-7-carboxamide]
0.1 to 1 µM: AC50 (HTT mRNA [1]) | IC50 (HTT mRNA [1]) | GI50 [2] | IC50 (HTT mRNA [4])
< 0.1 µM: AC50 (MYB mRNA [3]) | IC50 (MYB mRNA [3]) | IC50 (SMN2 mRNA) | IC50 (MYB mRNA [5])

COc1c(NC(=O)c2c(F)cc(N3CCC(NC4CC4)CC3)c3cn(C)nc23)cn2cc(C)nc2c1F [Compound 207, 4-[4-(cyclopropylamino)-1-piperidyl]-6-fluoro-N-(8-fluoro-7-methoxy-2-methyl-imidazo[1,2-a]pyridin-6-yl)-2-methyl-indazole-7-carboxamide]
< 0.1 µM: AC50 (HTT mRNA [1]) | IC50 (HTT mRNA [1]) | GI50 [2] | AC50 (MYB mRNA [3]) | IC50 (MYB mRNA [3]) | IC50 (SMN2 mRNA) | IC50 (HTT mRNA [4]) | IC50 (MYB mRNA [5])
